Experimental data reported in EP3394070B1, “CRYSTALLINE FORMS OF QUINOLONE ANALOGS AND THEIR SALTS” (Senhwa Biosciences, Inc., priority 2015, dated 2017).
Where a name gives a salt, the structure may show the parent alone.

Tests used:
[1] = Solid-form stability of acid salts stored at elevated temperature (HPLC purity); assay type: physicochemical; conditions: for Purity % a/a after 3 days at 80 °C (HPLC): solid form stored at 80 °C
Description: (§1) Crystalline forms (i.e., salts and free base) of the present invention were analyzed by total area normalization (TAN).
Stability of the acid salts were also tested by storing the salts (solid forms) at an elevated temperature of 45 and 80 °C. Table 12 Stability of Acid Addition Salts

[2] = Stability (HPLC purity) of acid salts in water, stirred at 42 °C for 3 days; assay type: physicochemical; conditions: for Purity % a/a after 3 days (HPLC): in water, stirred at 42 °C for 3 days
Description: as §1
The mixture was stirred at 42 °C for 3 days and each solution was analyzed by HPLC for concentration and purity. Table 11 Solubility and Purity of Acid Addition Salts

physchem = conditions: 42 °C, water, thermodynamic from solid
[3] = water, 72 h

Row | SMILES | Purity % a/a after 3 days at 80 °C (HPLC) [1] | Purity % a/a after 3 days (HPLC) [2] | solubility at 3 days (physchem) | Purity % a/a after 3 days at 45 °C (HPLC) ([1]; solid form stored at 45 °C) | Starting Purity % a/a (HPLC) ([2]; before the 3 day test (time zero)) | Aqueous Solubility (Calculated) [3]
1 | Cc1cnc(CNC(=O)c2c(=O)c3ccc(N4CCCN(C)CC4)nc3n3c2sc2ccccc23)cn1 [Free Base, 2-(4-Methyl-[1,4]diazepan-1-yl)-5-oxo-5H-7-thia-1,11b-diaza-benzo[c]fluorene-6-carboxylic acid (5-methyl-pyrazin-2-ylmethyl)-amide] | 99.67 % a/a | 99.58 % a/a | < 100 mg/mL |  |  | 
2 | Cc1cnc(CNC(=O)c2c(=O)c3ccc(N4CCCN(C)CC4)nc3n3c2sc2ccccc23)cn1 [HCl] | 98.71 % a/a | 88.62 % a/a |  | 98.48 % a/a | 98.78 % a/a | > 100 mg/mL
